Values after ≈ are worked out from the molar mass of the structure shown.
How the values were obtained:
Moraxella catarrhalis = experiment: In vitro antibacterial activity against Moraxella catarrhalis 1502; assay type: functional
Streptococcus pneumoniae = experiment: In vitro antibacterial activity against Streptococcus pneumoniae PU7; assay type: functional
Staphylococcus aureus = experiment: In vitro antibacterial activity against Staphylococcus aureus Oxford; assay type: functional
Haemophilus influenzae = experiment: In vitro antibacterial activity against Haemophilus influenzae Q1; assay type: functional
Streptococcus pyogenes = experiment: In vitro antibacterial activity against Streptococcus pyogenes CN10; assay type: functional
Mus musculus [1] = experiment: The area under curve in vivo in mouse blood level after subcutaneous administration at dose 50 mk/kg e-1; assay type: ADME, organism-based; conditions: sc
Homo sapiens = experiment: The compound was tested for its percentage serum binding affinity in human […]; assay type: organism-based
[2] = system: Isoleucine--tRNA ligase (Haemophilus influenzae); experiment: In vitro antibacterial activity against isoleucyl-tRNA synthetase from Haemophilus influenzae Q1
[3] = system: Isoleucine--tRNA ligase (Streptococcus pyogenes); experiment: In vitro antibacterial activity against isoleucyl-tRNA synthetase from Streptococcus pyogenes CN10
[4] = system: Isoleucine--tRNA ligase (Streptococcus pneumoniae); experiment: In vitro antibacterial activity against isoleucyl-tRNA synthetase from Streptococcus pneumoniae PU7
Mus musculus [5] = experiment: The compound was tested for its percentage serum binding affinity in mouse […]; assay type: functional
[6] = system: Isoleucine--tRNA ligase (Moraxella catarrhalis); experiment: In vitro antibacterial activity against isoleucyl-tRNA synthetase from Moraxella catarrhalis 1502
Mus musculus [7] = experiment: Concentration required to protect 50% of the mice from death after oral administration of compound tested in vivo; assay type: functional
[8] = biological target: T1, Isoleucine--tRNA ligase (Staphylococcus aureus) (UniProt P41972); experiment: In vitro antibacterial activity against isoleucyl-tRNA synthetase from Staphylococcus aureus Oxford; assay type: functional
T1 sequence (whole entry): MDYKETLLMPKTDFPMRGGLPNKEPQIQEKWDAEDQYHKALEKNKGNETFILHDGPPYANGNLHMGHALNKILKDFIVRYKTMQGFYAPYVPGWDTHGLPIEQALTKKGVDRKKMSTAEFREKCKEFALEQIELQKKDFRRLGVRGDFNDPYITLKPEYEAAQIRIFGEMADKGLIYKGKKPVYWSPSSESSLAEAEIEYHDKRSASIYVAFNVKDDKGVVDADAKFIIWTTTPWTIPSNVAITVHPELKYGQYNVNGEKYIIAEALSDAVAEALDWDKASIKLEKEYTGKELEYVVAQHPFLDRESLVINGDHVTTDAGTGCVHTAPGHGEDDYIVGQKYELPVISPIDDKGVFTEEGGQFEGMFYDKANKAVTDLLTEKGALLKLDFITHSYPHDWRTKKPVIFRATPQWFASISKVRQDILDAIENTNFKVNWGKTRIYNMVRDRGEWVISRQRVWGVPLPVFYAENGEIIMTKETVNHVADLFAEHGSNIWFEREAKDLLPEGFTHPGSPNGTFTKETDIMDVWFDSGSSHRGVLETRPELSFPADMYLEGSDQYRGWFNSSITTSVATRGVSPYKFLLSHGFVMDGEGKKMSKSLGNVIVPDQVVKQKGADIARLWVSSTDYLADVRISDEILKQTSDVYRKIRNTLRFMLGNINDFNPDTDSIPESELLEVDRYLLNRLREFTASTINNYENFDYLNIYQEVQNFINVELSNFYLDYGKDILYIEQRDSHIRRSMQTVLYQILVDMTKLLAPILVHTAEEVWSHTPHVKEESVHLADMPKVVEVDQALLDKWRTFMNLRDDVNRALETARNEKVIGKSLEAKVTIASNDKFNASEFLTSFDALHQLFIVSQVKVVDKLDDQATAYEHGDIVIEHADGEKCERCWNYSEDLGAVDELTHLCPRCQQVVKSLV

Mus musculus [9] = experiment: Concentration required to protect 50% of the mice from death after s.c. administration of compound tested in vivo; assay type: functional
Mus musculus [10] = experiment: The area under curve in vivo in mouse blood level after oral administration at dose 50 mk/kg e-1; assay type: ADME, organism-based

Compound	MIC (Moraxella catarrhalis) [µg/mL]	MIC (Streptococcus pneumoniae) [µg/mL]	MIC (Staphylococcus aureus) [µg/mL]	MIC (Haemophilus influenzae) [µg/mL]	MIC (Streptococcus pyogenes) [µg/mL]	AUC (Mus musculus [1]) [ng·h/mL]	Bound (Homo sapiens) [%]	MIC [2] [µg/mL]	MIC [3] [µg/mL]	MIC [4] [µg/mL]	Bound (Mus musculus [5]) [%]	MIC [6] [µg/mL]	CD50 (Mus musculus [7]) [mg/kg]	MIC [8] [µg/mL]	CD50 (Mus musculus [9]) [mg/kg]	AUC (Mus musculus [10]) [ng·h/mL]
COc1ccc(C(=O)/C=C/C[C@@H]2OC[C@H](C[C@@H]3O[C@H]3[C@@H](C)[C@H](C)O)[C@@H](O)[C@H]2O)cc1	2 (≈ 4.76 µM)	0.25 (≈ 0.595 µM)	1 (≈ 2.38 µM)	0.13 (≈ 0.309 µM)	0.5 (≈ 1.19 µM)											
C/C(=C\C(=O)OCCCCCCCCC(=O)O)C[C@@H]1OC[C@H](C[C@@H]2O[C@H]2[C@@H](C)[C@H](C)O)[C@@H](O)[C@H]1O [MUPIROCIN]	0.13 (≈ 0.26 µM)	0.13 (≈ 0.26 µM)	0.13 (≈ 0.26 µM)	0.06 (≈ 0.12 µM)	0.13 (≈ 0.26 µM)											
C[C@H]([C@@H]1O[C@H]1C[C@H]1CO[C@@H](CC(=O)CC(=O)c2ccoc2)[C@H](O)[C@@H]1O)[C@H](C)O	2 (≈ 5.04 µM)	2 (≈ 5.04 µM)	1 (≈ 2.52 µM)	0.13 (≈ 0.328 µM)	1 (≈ 2.52 µM)											
COc1ccc(C(=O)CC(=O)C[C@@H]2OC[C@H](C[C@@H]3O[C@H]3[C@@H](C)[C@H](C)O)[C@@H](O)[C@H]2O)cc1						14900	75	0.06 (≈ 0.137 µM)	0.25 (≈ 0.573 µM)	0.25 (≈ 0.573 µM)	51	0.25 (≈ 0.573 µM)	28	0.5 (≈ 1.15 µM)	3.8	5920
COc1ccc(/C=C/C(=O)C[C@@H]2OC[C@H](C[C@@H]3O[C@H]3[C@@H](C)[C@H](C)O)[C@@H](O)[C@H]2O)cc1	16 (≈ 38 µM)	8 (≈ 19 µM)	128 (≈ 304 µM)	1 (≈ 2.38 µM)	8 (≈ 19 µM)											
C[C@H]([C@@H]1O[C@H]1C[C@H]1CO[C@@H](CC(=O)CC(=O)c2cnn(C)c2)[C@H](O)[C@@H]1O)[C@H](C)O	0.5 (≈ 1.22 µM)	1 (≈ 2.44 µM)	4 (≈ 9.74 µM)	0.13 (≈ 0.317 µM)	1 (≈ 2.44 µM)											
C[C@H]([C@@H]1O[C@H]1C[C@H]1CO[C@@H](CC(=O)CC(=O)c2ccc(N(C)C)nc2)[C@H](O)[C@@H]1O)[C@H](C)O						13300	84	0.06 (≈ 0.133 µM)	1 (≈ 2.22 µM)	0.5 (≈ 1.11 µM)	66	1 (≈ 2.22 µM)	23	1 (≈ 2.22 µM)	12	7180
C[C@H]([C@@H]1O[C@H]1C[C@H]1CO[C@@H](CC(=O)CC(=O)C2=CCCCC2)[C@H](O)[C@@H]1O)[C@H](C)O	2 (≈ 4.87 µM)	0.5 (≈ 1.22 µM)	2 (≈ 4.87 µM)	0.13 (≈ 0.317 µM)	0.5 (≈ 1.22 µM)											
C[C@H]([C@@H]1O[C@H]1C[C@H]1CO[C@@H](CC(=O)CC(=O)c2ccsc2)[C@H](O)[C@@H]1O)[C@H](C)O	1 (≈ 2.42 µM)	0.5 (≈ 1.21 µM)	1 (≈ 2.42 µM)	0.13 (≈ 0.315 µM)	1 (≈ 2.42 µM)											
COc1ccc(C(=O)/C=C(\C)C[C@@H]2OC[C@H](C[C@@H]3O[C@H]3[C@@H](C)[C@H](C)O)[C@@H](O)[C@H]2O)cc1						5600	96	0.03 (≈ 0.069 µM)	0.25 (≈ 0.575 µM)	0.25 (≈ 0.575 µM)	79	0.25 (≈ 0.575 µM)	18	0.5 (≈ 1.15 µM)	12	1770
COc1ccc(C(=O)CC(=O)C[C@@H]2OC[C@H](C[C@@H]3O[C@H]3[C@@H](C)[C@H](C)O)[C@@H](O)[C@H]2O)cn1	0.25 (≈ 0.571 µM)	0.13 (≈ 0.297 µM)	1 (≈ 2.29 µM)	0.13 (≈ 0.297 µM)	0.13 (≈ 0.297 µM)											
C[C@H]([C@@H]1O[C@H]1C[C@H]1CO[C@@H](CC(=O)CC(=O)c2ccc(F)cc2)[C@H](O)[C@@H]1O)[C@H](C)O						6800	80	0.06 (≈ 0.141 µM)	0.25 (≈ 0.589 µM)	0.13 (≈ 0.306 µM)		0.5 (≈ 1.18 µM)	19	0.5 (≈ 1.18 µM)	12	4930
CCCCC(=O)CC(=O)C[C@@H]1OC[C@H](C[C@@H]2O[C@H]2[C@@H](C)[C@H](C)O)[C@@H](O)[C@H]1O	2 (≈ 5.17 µM)	8 (≈ 20.7 µM)	8 (≈ 20.7 µM)	0.5 (≈ 1.29 µM)	2 (≈ 5.17 µM)											

Continued, in another order:

MIC (Moraxella catarrhalis) [µg/mL]	MIC (Streptococcus pneumoniae) [µg/mL]	MIC (Staphylococcus aureus) [µg/mL]	MIC (Haemophilus influenzae) [µg/mL]	MIC (Streptococcus pyogenes) [µg/mL]	Compound	AUC (Mus musculus [1]) [ng·h/mL]	Bound (Homo sapiens) [%]	MIC [2] [µg/mL]	MIC [3] [µg/mL]	MIC [4] [µg/mL]	Bound (Mus musculus [5]) [%]	MIC [6] [µg/mL]	CD50 (Mus musculus [7]) [mg/kg]	MIC [8] [µg/mL]	CD50 (Mus musculus [9]) [mg/kg]	AUC (Mus musculus [10]) [ng·h/mL]
2 (≈ 4.43 µM)	1 (≈ 2.21 µM)	2 (≈ 4.43 µM)	0.25 (≈ 0.554 µM)	1 (≈ 2.21 µM)	C[C@H]([C@@H]1O[C@H]1C[C@H]1CO[C@@H](CC(=O)CC(=O)c2cnc(N(C)C)nc2)[C@H](O)[C@@H]1O)[C@H](C)O											
0.5 (≈ 1.11 µM)	0.5 (≈ 1.11 µM)	2 (≈ 4.45 µM)	0.06 (≈ 0.133 µM)	1 (≈ 2.22 µM)	C[C@H]([C@@H]1O[C@H]1C[C@H]1CO[C@@H](CC(=O)CC(=O)c2ccc(N(C)C)cc2)[C@H](O)[C@@H]1O)[C@H](C)O											
0.5 (≈ 1.16 µM)	0.25 (≈ 0.579 µM)	2 (≈ 4.64 µM)	0.06 (≈ 0.139 µM)	0.13 (≈ 0.301 µM)	C[C@H]([C@@H]1O[C@H]1C[C@H]1CO[C@@H](CC(=O)CC(=O)c2ccc(C#N)cc2)[C@H](O)[C@@H]1O)[C@H](C)O											
0.5 (≈ 0.983 µM)	1 (≈ 1.97 µM)	1 (≈ 1.97 µM)	1 (≈ 1.97 µM)	0.5 (≈ 0.983 µM)	CCOC(OCC)c1ccc(C(=O)CC(=O)C[C@@H]2OC[C@H](C[C@@H]3O[C@H]3[C@@H](C)[C@H](C)O)[C@@H](O)[C@H]2O)cc1											
1 (≈ 2.46 µM)	0.5 (≈ 1.23 µM)	1 (≈ 2.46 µM)	0.25 (≈ 0.615 µM)	0.5 (≈ 1.23 µM)	C[C@H]([C@@H]1O[C@H]1C[C@H]1CO[C@@H](CC(=O)CC(=O)c2ccccc2)[C@H](O)[C@@H]1O)[C@H](C)O											
